Patent publication US8741965B2, “Method of administering a pheromone composition to an animal to modify the animals behavior over an extended period of time” (Sergeant's Pet Care Products, Inc., priority 2011, dated 2014)
“Also recorded” adds a separate entry of the source.

What was measured:
cat = test: Collar containing rabbit pheromone worn by cats (Example 7); type: in vivo; conditions: collar worn by a cat
Source text: A collar containing 2-methylbut-2-enal can be prepared in accordance with Examples 1 or 2.

nervous dogs [1] = test: Example 11 Study 3: DAP spray versus RP spray with startle; type: in vivo, dog
Source text: (§1) Eight dogs were obtained from a local contract research facility and assessment was made as to general dog health, behavior and heart rate. The dogs were estimated to be 2 to 7 years of age, mixed breed, and weighed averagely 8.1±0.18 kg at the start of the studies. […] Upon arrival each dog was bathed using shampoo containing flea and tick medicine (Hartz Mountain Corp. Secaucus, N.J. USA), and their body hair was shaved. Each dog was kept in a single room, which had 100% fresh air intake and exhaust. The dogs were fed twice (am and pm) per day ad libitum. At that time, the room was cleaned and the dogs obtained extra exercise. Water was available ad libitum.
(§2) Dog behavior was captured on video media at a sampling rate of 30 frames per second. Video records were reviewed in real time (with tape playing 30 frames per second). A scan sampling method was used to record dog behaviors each minute or each 5 minutes depending on the particular study. If the sample period was 120 minutes with four periods (0-30=0, 30-60=30, 60-90=60, and 90-120-90 min), then a scan sample was recorded each 1 minute. If the sample period was 24 hours, then the scan sample was collected each 5 minutes and summarized each hour. For example, pacing is when a dog walks in a stereotyped manner for minutes to hours. Because it was not easy to distinguish walking from pacing, the behaviors were merged. In addition, the video records could not clearly distinguish lying down and awake versus lying down and sleeping, therefore there was no separate description for these two behaviors.
(§3) Heart rate during the studies was measured by the use of a non-invasive telemetry system (Data Science International, St. Paul, Minn., USA). Leads were placed in contact with the dogs' shaved skin. Sensors measured heart rate, surface temperature and general activity. Data were transmitted to a receiving computer in another room. The sampling rate varied with the study, but was 5 seconds for the first two hours after treatments and then each 1 minute for 24 hours (depending on the particular study). For surface temperature measurements of the dog subjects, a thermistor was located against the skin of each dog. It recorded the surface temperature to the neared 0.1° C. on the same interval as the heart rate data.
(§4) Behavior and physiological data (heart rate and surface temperature) were analyzed by least squares analysis of variance using SAS (2011) software and the general linear models procedures. The experimental design of each study was a specialized randomized complete block in a Latin square design with data collected as a split plot over time. Dogs represented the blocks. Each dog received each treatment randomly in successive days or weeks. The statistical model included effects of treatment (TRT), dog, dog by treatment (TRT*DOG; error term used to assess treatment and dog effects), time (HR), treatment by time (TRT*HR), and residual error (SE; used to test remaining effects). Behavior data were collected and analyzed as counts per time period, but for clarity of presentation, the data are reported as percentage of time dogs engaged in each behavior.
In Study 1 and 2, the DAP was applied as a collar and the rabbit pheromone as a spray. To test if the physical form of the pheromone/INTEROMONE® impacted its efficacy, Study 3 examined the behavior and heart rate effects of Dog Appeasing Pheromone (DAP) and rabbit pheromone (RP) both applied as a spray after startle in order to obtain a direct comparison between sprays. Accordingly, Study 3 examined the relative effect of DAP spray (DAPS) and RP spray on the behavior and heart rate of the dog subjects. Both treatments were given to each dog in a random order. In this study, the Behavior data were collected from dogs 1-8 while heart rate data were collected from dogs 1-4.

nervous dogs [2] = test: Example 11 Study 1: baseline behavior and heart rate after collar or spray; type: in vivo, dog; conditions: for pacing-walking behavior of individual dogs: Study 1, FIG. 3A; for sitting behavior of individual dogs: FIG. 3C; for heart rate of individual dogs: Study 1, dogs 1-4, FIG. 6; for overall dog heart rate and its decline: dogs 1-4, two hours after collar or spray, FIGS. 4, 5
Source text: as §1, §2, §3, §4
In Study 1, baseline heart rate data were collected while the dogs each experienced 4 different treatments—a placebo collar (PLACEBO), Pheromone “H” Collar (SERG), Dog Appeasing Pheromone in collar form (DAPC) and the Rabbit Pheromone (RP; 1 μg/mL) formulated into a spray in accordance with Example 8. Each of the four treatments was given to each dog in a random order, with the treatment changing each week. Baseline heart rate and behavior data were collected for 30 minutes before each treatment application (see Table 8) and 2 hours after (see Table 9) (expressed in % of time).

nervous dogs (dogs 5-8) = test: Example 11 Study 4: room diffusers over 24 hours; type: in vivo, dog; conditions: for heart rate and surface temperature of individual dogs: compared with Placebo, FIGS. 17A and 17B
Source text: as §1, §2, §3, §4
In Study 4, putative pheromones were examined as room diffusers. Room diffusers were obtained and different liquid odors were applied over a 24 hour period. In contrast to Studies 1, 2, and 3, heart rates and behavior data were obtained over 24 hours (rather than just 2 hours after treatment application as in the other studies) and a baseline day was included in the dataset. Similar to Studies 1, 2, and 3, each dog experienced each treatment on different days in random order. The following treatment groups were evaluated: Baseline, Placebo Formula H Pheromone (SERG), DAP room diffuser (DAPRD; as available commercially) and the Rabbit Pheromone in diffuser form prepared in accordance with Example 4 (RPRD, 1 μg/mL). […]

[3] = 120 minutes after treatment, no startle, SERG, DAPC collars, RP spray 1 μg/mL

Question: How did the “change in cat behavior” value (cat) turn out when C/C=C(\C)C=O [RP, 2-methylbut-2-enal] was run?
Answer: significant change in behavior towards a calmer demeanor

Question: And the Defecate (nervous dogs [1]; DAPS or RP spray with startle)?
Answer: 0.93 % of time

Question: What about the Drink (nervous dogs [1]; DAPS or RP spray with startle) of the same compound?
Answer: 0 % of time

Question: What about the Eat (nervous dogs [1]; DAPS or RP spray with startle) of the same compound?
Answer: 0 % of time

Question: And the Lick self (nervous dogs [1]; DAPS or RP spray with startle)?
Answer: 0 % of time

Question: What about the Lying down (nervous dogs [1]; DAPS or RP spray with startle) of the same compound?
Answer: 43.8 % of time

Question: What about the Pace-walk (nervous dogs [1]; DAPS or RP spray with startle) of the same compound?
Answer: 9.8 % of time

Question: What about the Sitting (nervous dogs [1]; DAPS or RP spray with startle) of the same compound?
Answer: 35.4 % of time

Question: And the Standing (nervous dogs [1]; DAPS or RP spray with startle)?
Answer: 3.7 % of time

Question: And the Urinate (nervous dogs [1]; DAPS or RP spray with startle)?
Answer: 0 % of time

Question: And the “sitting, main effect of treatment” value (nervous dogs [1]; RP spray versus DAP spray, startle)?
Answer: tended to sit more (P=0.068) than DAP sprayed dogs

Question: What about the “heart rate change relative to time zero” value (nervous dogs [1]; spray and startle, dogs 1-4, FIG. 14B) of the same compound?
Answer: generally unchanged over time, although were lower than baseline rate

Question: What about the “lying down of individual dogs” value (nervous dogs [1]; sprays, during startle, FIG. 13) of the same compound?
Answer: Dog 3 showed increased lying down

Question: And the “pacing-walking and standing of individual dogs” value (nervous dogs [1]; sprays, startle, FIGS. 11 and 12)?
Answer: dogs 1 and 4 had increased pacing-walking

Question: And the “sitting over time versus other treatments” value (nervous dogs [2]; 2-hour period after collar or spray, FIG. 3D)?
Answer: In the 60 minute period after treatment with rabbit pheromone, dogs also sat more than with the other treatments

Question: What about the “average time dogs sat” value (nervous dogs [2]; 30 minute period after spray, FIG. 3D) of the same compound?
Answer: ~50 % of the time

Question: And the Defecate (nervous dogs [2]; [3])?
Answer: 0 % of time

Question: What about the Drink (nervous dogs [2]; [3]) of the same compound?
Answer: 0.0 % of time

Question: What about the Eat (nervous dogs [2]; [3]) of the same compound?
Answer: 0.0 % of time

Question: And the Lick self (nervous dogs [2]; [3])?
Answer: 0 % of time

Question: What about the Lying down (nervous dogs [2]; [3]) of the same compound?
Answer: 58.5 % of time

Question: What about the Pace-walk (nervous dogs [2]; [3]) of the same compound?
Answer: 7.6 % of time

Question: And the Sitting (nervous dogs [2]; [3])?
Answer: 93.1 % of time

Question: And the Standing (nervous dogs [2]; [3])?
Answer: 3.1 % of time

Question: And the Urinate (nervous dogs [2]; [3])?
Answer: 0 % of time

Question: And the “pacing-walking behavior of individual dogs” value (nervous dogs [2]; listed as RP spray)?
Answer: dog 7 showed reduced pacing-walking; also recorded: increased pacing-walking of dog 1 compared with the DAP collar

Question: What about the “pacing-walking behavior of individual dogs” value (nervous dogs [2]; listed as rabbit INTEROMONE® spray) of the same compound?
Answer: Dog 3 increased pacing with Serg, but reduced its pacing with DAP collar and rabbit INTEROMONE® spray; also recorded: Dog 7's pacing was reduced by DAP collar and reduced even more by rabbit INTEROMONE® spray

Question: And the “lying down behavior / activity of individual dogs” value (nervous dogs [2]; Study 1, compared with Placebo, FIG. 3B)?
Answer: For dog 2, both SERG and RP reduced lying down behavior significantly; also recorded: For dog 8, only RP increased dog activity and reduced lying down

Question: And the “sitting behavior of individual dogs” value (nervous dogs [2]; Study 1, compared with Placebo, listed as RP spray)?
Answer: increased dog sitting in dogs 2 and 8

Question: And the “sitting behavior of individual dogs” value (nervous dogs [2]; Study 1, compared with Placebo, listed as rabbit pheromone)?
Answer: dogs 2 and 8 showed increased sitting

Question: And the “heart rate of individual dogs” value (nervous dogs [2])?
Answer: decreased the heart rates of dogs 3 and 4 compared to other treatments

Question: What about the “heart rate of individual dogs” value (nervous dogs [2]; listed as Rabbit pheromone) of the same compound?
Answer: decreased heart rate in dog 3

Question: What about the “heart rate of individual dogs” value (nervous dogs [2]; listed as rabbit pheromone spray) of the same compound?
Answer: Dog 3 had decreased heart rate

Question: And the speed of calming (nervous dogs [2]; Study 1, spray versus collar)?
Answer: calms dogs faster than treatment with DAP collar

Question: What about the “heart rate decline (slope of regression equation)” value (nervous dogs [2]; dogs 1-4, FIG. 5, placebo 6 bpm/h) of the same compound?
Answer: 24.5 bpm/h

Question: And the “overall dog heart rate and its decline” value (nervous dogs [2])?
Answer: had the greatest effect in decreasing dog heart rate

Question: And the “overall dog heart rate and its decline” value (nervous dogs [2]; listed as rabbit pheromone)?
Answer: most significantly (P<0.05) reduced overall dog heart rate; also recorded: greater decline in heart rate than Placebo

Question: What about the “TEMP (surface temperature)” value (nervous dogs (dogs 5-8); after room diffuser treatment, dogs 5-8, Placebo 30.9) of the same compound?
Answer: 33.8

Question: What about the “HR (overall heart rate)” value (nervous dogs (dogs 5-8); after room diffuser treatment, dogs 5-8, Placebo 79.6) of the same compound?
Answer: 108.4

Question: And the Defecate (nervous dogs (dogs 5-8); room diffuser, 24 hours)?
Answer: 0.18% of time

Question: What about the Drink (nervous dogs (dogs 5-8); room diffuser, 24 hours) of the same compound?
Answer: 0.18% of time

Question: And the Eat (nervous dogs (dogs 5-8); room diffuser, 24 hours)?
Answer: 0.26% of time

Question: And the Lick self (nervous dogs (dogs 5-8); room diffuser, 24 hours)?
Answer: 0.09% of time

Question: And the “Lying down” value (nervous dogs (dogs 5-8); room diffuser, 24 hours)?
Answer: 87.0% of time

Question: And the Pace- (nervous dogs (dogs 5-8); room diffuser, 24 hours)?
Answer: 5.67% of time

Question: And the Sitting (nervous dogs (dogs 5-8); room diffuser, 24 hours)?
Answer: 5.00% of time

Question: And the Standing (nervous dogs (dogs 5-8); room diffuser, 24 hours)?
Answer: 1.42% of time

Question: And the Urinate (nervous dogs (dogs 5-8); room diffuser, 24 hours)?
Answer: 0.26% of time

Question: What about the “drinking behavior of individual dogs” value (nervous dogs (dogs 5-8); room diffuser, FIG. 16) of the same compound?
Answer: dog 7 showed increased drinking

Question: And the “heart rate and surface temperature of individual dogs” value (nervous dogs (dogs 5-8); room diffuser)?
Answer: increased the surface temperature of dog 7 compared to placebo

Question: And the “heart rate and surface temperature of individual dogs” value (nervous dogs (dogs 5-8); room diffuser, listed as rabbit pheromone)?
Answer: Dog 5 had elevated HR and surface temperature; also recorded: Dog 6 had increased heart rate and decreased surface temperature

Question: And the “heart rate of dog 5” value (nervous dogs (dogs 5-8); room diffuser, increased to)?
Answer: about 200 bpm
